In patent publication US20140079717A1, “Compositions and Methods to Prevent Cell Transformation and Cancer Metastasis” (CORNELL UNIVERSITY, priority 2011, published 2014):

What was measured:
[1] = tested on: HeLa cervical carcinoma cells; test: MV formation in HeLa cells, rhodamine-phalloidin labeling; assay type: cell-based, human; conditions: serum-starved HeLa cells, EGF stimulation
Experimental: FIG. 2. Quantification of MV production by various cell lines cultured under serum-starved or EGF-stimulated conditions. Cells generating MVs were detected by labeling the samples with rhodamine-conjugated phalloidin. The data shown represents the mean±s.d. from three independent experiments.
FIG. 3. Images of cells from the experiment performed in FIG. 2. Some of the MVs are denoted with arrows.
(§1) The MDAMB231, U87, MCF10A, and HeLa cell lines were grown in RPMI 1640 medium containing 10% fetal bovine serum, while the NIH3T3 cell line was grown in DMEM medium containing 10% calf serum. Expression constructs were transfected into cells using Lipofectamine, whereas the control and tTG siRNAs were introduced into cells with Lipofectamine 2000. As indicated, cells were incubated with serum-free medium containing combinations of 0.1 μg/ml EGF, 100 μM MDC, 10 μM T101, 10 μM BFA, and 10 μM Exo1. To mitotically arrest MDAMB231 cells, plates of cells were treated with 10 μg/ml mitomycin-C for 2 hours, before rinsing the solution away and allowing the cells to recover in growth medium (RPMI-1640 medium containing 10% FBS) for a day.

[2] = tested on: MDAMB231 cells; test: Tumor formation assay in nude mice; assay type: in vivo; conditions: cells exposed to mitomycin-C before subcutaneous injection into nude mice
Experimental: FIG. 25. Tumor formation assays were performed in which 5×10^5 mitotically-arrested (using mitomycin-C) MDAMB231 cells (denoted as Mito-C-MDAMB231) expressing either control siRNA (siCont) or tTG siRNAs (denoted as siTG-1 or siTG-2) were subcutaneously injected singly, or combined with 5×10^5 NIH3T3 fibroblasts, into nude mice. As controls, untreated MDAMB231 and NIH3T3 cells were injected into nude mice.
The MDAMB231, U87, MCF10A, and HeLa cell lines were grown in RPMI 1640 medium containing 10% fetal bovine serum, while the NIH3T3 cell line was grown in DMEM medium containing 10% calf serum. Expression constructs were transfected into cells using Lipofectamine, whereas the control and tTG siRNAs were introduced into cells with Lipofectamine 2000. As indicated, cells were incubated with serum-free medium containing combinations of 0.1 μg/ml EGF, 100 μM MDC, 10 μM T101, 10 μM BFA, and 10 μM Exo1. […]
5×10^5 mitotically arrested (using mitomycin-C) MDAMB231 cells stably expressing control or tTG siRNAs were combined with 5×10^5 NIH3T3 fibroblasts and growth factor-reduced Matrigel (BD Biosciences) to achieve 30% Matrigel in the final solution. […] After a month, the animals were sacrificed and the resulting tumors that formed for each experimental condition were excised and counted. […]

[3] = tested on: MDAMB231 cells; test: MV formation by MDAMB231 cells, immunofluorescence with tTG antibody; assay type: cell-based, human; conditions: serum-starved MDAMB231 cells treated with inhibitor
Experimental: FIG. 38. Serum-starved MDAMB231 cells treated without or with T101, MDC, BFA, or Exo1, were immuno-stained with a tTG antibody. Shown are representative images of the cells exposed to the various inhibitors. Cells forming MVs are denoted with arrows.
as §1
Cells were fixed with 3.7% paraformaldehyde and then some samples were permeabilized with phosphate-buffered saline (PBS) containing 0.1% Triton X-100. Permeabilized and non-permeabilized samples were incubated with a tTG antibody, and then incubated with Oregon green 488-conjugated secondary antibody. Rhodamine-conjugated phalloidin was used to stain actin and DAPI was used to stain nuclei. The cells were visualized by fluorescent microscopy and the images were captured and processed using IPLABS.

[4] = tested on: MDAMB231 cells; test: Shedding of MVs by MDAMB231 cells, immunoblot of flotillin-2 and tTG in MV lysates; assay type: cell-based, human; conditions: MDAMB231 cells treated with inhibitor
Text: FIG. 39. Serum-starved MDAMB231 cells treated without or with the tTG inhibitors T101 and MDC (left panel), transfected with either control siRNA (siCont) or two distinct tTG siRNAs (siTG-1 and siTG-2) (middle panel), or treated without or with the inhibitors of classical secretion, BFA and Exo1 (right panel), were lysed (WCLs) and the MVs released into the medium by the cells were also collected and lysed. The extracts were immunoblotted with antibodies against tTG, the MV-marker flotillin-2, and the cytosolic-specific-marker IκBα.
For each of the experiments that used MV preparations, the conditioned medium from 5.0×10^6 serum-starved MDAMB231 cells or U87 cells (which is the equivalent of two nearly confluent 150 MM dishes of either of these cell lines) were collected and the MVs isolated from the medium as previously described. […]
The protein concentrations of the whole cell lysates (WCLs) were determined using the Bio-Rad DC protein assay, while the MV lysates were normalized for comparison by isolating them from the conditioned medium of 5.0×10^6 serum-starved MDAMB231 cells or U87 cells for each of the experimental conditions assayed, and then lysing in 250 μl of cell lysis buffer. […] The primary antibodies were detected with horseradish peroxidase-conjugated secondary antibodies (Amersham Biosciences) followed by exposure to ECL reagent.

[5] = tested on: NIH3T3 fibroblasts; test: Anchorage-independent growth assay (soft agar) on NIH3T3 fibroblasts incubated with MVs; assay type: cell-based; conditions: NIH3T3 cells, U87 cell-derived MVs treated with AG1478
Experimental: FIG. 21. Anchorage-independent growth assays were performed on fibroblasts incubated with MDAMB231 cell-derived MVs treated without or with T101, the RGD-peptide, or the control RGE-peptide. Data represents the mean±s.d. from at least three independent experiments.
FIG. 34. MDAMB231 cell-derived MVs transform recipient MCF10A mammary epithelial cells. Anchorage-independent growth assays were performed on NIH3T3 fibroblasts incubated with U87 cell-derived MVs treated without or with the EGF receptor inhibitor AG1478. The culturing medium (including the MVs, T101, and AG1478) for the soft agar assays performed was replenished every third day for 12 days, at which time the colonies that formed were counted. […]
Parental NIH3T3 cells or MCF10A cells incubated without or with MVs derived from 5.0×10^6 MDAMB231 cells or U87 cells, or NIH3T3 cells stably overexpressing the vector-control, wild-type tTG, or Cdc42 F28L, were plated at a density of 7×10^3 cells/ml in medium containing 0.3% agarose, without or with various inhibitors as indicated, onto underlays composed of growth medium containing 0.6% agarose in six-well dishes. The soft agar cultures were re-fed (including the addition of freshly prepared MVs and treatments with various inhibitors as indicated) every third day for 12 days, at which time the colonies that formed were counted. […]

[6] = molecular target: T1, tTG (Homo sapiens, UniProt P21980); test: Transamidation activity of intact MDAMB231 cell-derived MVs (incorporation of BPA into casein); assay type: biochemical; conditions: pre-treatment of intact MDAMB231 cell-derived MVs with inhibitor
T1 construct: endogenous in cells; host or cells: microvesicles shed by serum-starved MDAMB231 (and U87) cells
T1 sequence (P21980 1-687): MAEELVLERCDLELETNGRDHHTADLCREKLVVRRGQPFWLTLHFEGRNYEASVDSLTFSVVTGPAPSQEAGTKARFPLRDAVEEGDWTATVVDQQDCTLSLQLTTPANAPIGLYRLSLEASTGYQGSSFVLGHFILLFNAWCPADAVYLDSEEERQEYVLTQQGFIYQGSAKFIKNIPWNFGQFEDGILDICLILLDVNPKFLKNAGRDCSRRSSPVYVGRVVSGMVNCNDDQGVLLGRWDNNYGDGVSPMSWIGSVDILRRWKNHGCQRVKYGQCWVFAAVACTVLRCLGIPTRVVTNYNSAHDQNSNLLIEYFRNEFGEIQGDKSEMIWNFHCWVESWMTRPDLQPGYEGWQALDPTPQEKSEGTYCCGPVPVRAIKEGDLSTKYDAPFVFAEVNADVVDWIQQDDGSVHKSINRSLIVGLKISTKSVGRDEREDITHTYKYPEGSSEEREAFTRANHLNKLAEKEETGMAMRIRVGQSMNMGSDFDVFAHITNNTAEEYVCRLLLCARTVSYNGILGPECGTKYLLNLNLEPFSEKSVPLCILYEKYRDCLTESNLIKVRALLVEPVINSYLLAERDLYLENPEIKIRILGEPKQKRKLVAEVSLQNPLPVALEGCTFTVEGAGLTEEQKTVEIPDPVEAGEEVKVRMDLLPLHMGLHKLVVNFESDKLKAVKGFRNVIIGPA
Experimental: FIG. 17. Whole cell lysates (WCLs) of serum-starved MDAMB231 cells, as well as intact MVs generated by these cells treated without or with the tTG inhibitors T101 (cell-impermeable) or MDC (cell-permeable), were assayed for transamidation activity as readout by the incorporation of BPA into casein. The samples were then immunoblotted with antibodies against tTG, flotillin-2, and IκBα.
The transamidation activity in whole cell extracts was readout by the incorporation of BPA into lysate proteins as previously described, whereas the transamidation activity of recombinant tTG (0.1 μM) exposed to increasing concentrations of T101 was determined using a spectrophotometric assay. The transamidation activity associated with MVs was readout by incubating equal amounts (75 μl) of each MV sample in a buffer containing 40 mM N′N-dimethyl casein, 2 mM BPA, 40 mM CaCl2, and 40 mM dithiothreitol for 15 minutes. The reaction was stopped by the addition of Laemmli sample buffer followed by boiling. The reactions were then resolved by SDS-PAGE and the proteins transferred to polyvinylidene difluoride membranes. […]

[7] = tested on: NIH3T3 fibroblasts stably overexpressing Myc-tagged tTG; test: Cell death assay on NIH3T3 fibroblasts stably overexpressing Myc-tTG; assay type: cell-based; conditions: serum-free medium, cells treated with MDC
Experimental: FIG. 23. Cell death assays were performed on the NIH3T3 stable cell lines maintained in serum-free medium that was treated with T101, MDC, or 2% CS-medium, or was untreated. Data represents the mean±s.d. from at least three independent experiments.
NIH3T3 cells or MCF10A cells were plated in each well of a 6-well dish and then cultured in medium containing 2% CS or serum-free medium supplemented without or with MVs derived from 5.0×10^6 MDAMB231 cells or U87 cells, and without or with MDC or T101, as indicated. Two days later the cultures were fixed and stained with DAPI for viewing by fluorescence microscopy. Cells undergoing apoptosis were identified by nuclear condensation or blebbing and the percentage of cell death was determined by calculating the ratio of apoptotic to total cells for each condition. These experiments were conducted at least three times and the results from each experiment were averaged together and graphed.

Molecule	effect on MV formation [3]	effect on shedding of MVs (flotillin-2 and tTG in isolated MVs) [4]	further results
epidermal growth factor [EGF, growth factor used to stimulate cells]			MV formation [1]: induced
CO[C@@]12[C@H](COC(N)=O)C3=C(C(=O)C(C)=C(N)C3=O)N1C[C@@H]1N[C@@H]12 [mitomycin-C]			ability of MDAMB231 cells to form tumors [2]: inhibited
C[C@H]1CCC/C=C/[C@@H]2C[C@H](O)C[C@H]2[C@H](O)/C=C/C(=O)O1 [BFA, brefelden A]	not sensitive	nor was it affected	
COc1cc2ncnc(Nc3cccc(Cl)c3)c2cc1OC [AG1478]			anchorage-independent growth advantage imparted by U87 cell-derived MVs [5]: insensitive
CN(C)c1cccc2c(S(=O)(=O)NCCCCCN)cccc12 [MDC, monodansylcadaverine]	had no effect		crosslinking activity associated with MVs (levels of BPA-labeled casein) [6]: greatly diminished; resistance to serum-deprivation-induced apoptosis [7]: ablated
COC(=O)c1ccccc1NC(=O)c1ccc(F)cc1 [ExoI]	not sensitive	nor was it affected	
